14 compounds from PMC6010082, “Synthesis and in vitro antiproliferative and antibacterial activity of new thiazolidine-2,4-dione derivatives” (Journal of Enzyme Inhibition and Medicinal Chemistry, 2017) can be followed below.

Values after ≈ are worked out from the molar mass of the structure shown.

A word on the melting point: it is the temperature, or range, at which the solid turns liquid.

Series [1] has as its system Staphylococcus aureus ATCC 25923. Put plainly: Broth microdilution MIC, S. aureus ATCC 25923. Type of series: cell-based. Particulars: 35 °C; for MIC: Staphylococcus aureus, ATCC25923, 18 h, read-out: Minimal inhibitory concentration MIC, Staphylococcus aureus 25923. On the procedure:
(§1) Newly synthesised compounds’ antibacterial activities were tested in vitro against six aerobic bacteria reference strains: three Gram-positive (Staphylococcus aureus ATCC 25923, methicillin-resistant S. aureus MIKROBANK 14.001 reference strain from National Medicines Institute in Warsaw, and Staphylococcus epidermidis ATCC 12228) and three Gram-negative (Escherichia coli ATCC 25922, Proteus mirabilis ATCC 12453, and Pseudomonas aeruginosa ATCC 9027).
(§2) Bacterial cell suspensions equivalent to 0.5 McFarland (1.5 × 10^8 CFU/ml) were prepared in 0.85% sterile saline. Tested compounds’ stock solutions (50 mg/ml) were dissolved in dimethyl sulphoxide (DMSO).
(§3) Bacteria strain susceptibility to tested agents was determined by broth microdilution method. Broth microdilution method was carried out in accordance with Clinical and Laboratory Standards Institute recommendations and was used as reference method. Mueller–Hinton broth containing two-fold dilutions of the tested substances (at concentrations ranging from 3.91 to 1000 µg/ml) was used to determine their minimal inhibitory concentration (MIC) which is the lowest concentration of an antibacterial that will inhibit the visible growth of a microorganism after 18 h of incubation). Mueller–Hinton broth is recommended as the medium of choice for susceptibility testing of commonly isolated, rapidly growing aerobic, or facultative organisms. Gentamicin (KRKA, Slovenia), an aminoglycoside antibiotic active against a wide range of human bacterial infections, mostly Gram-negative bacteria including Pseudomonas, Proteus, Serratia, and the Gram-positive Staphylococcus, was used as a control antibacterial agent (at concentration from 0.12 µg to 1000 µg).
(§4) Tested compounds two-fold dilutions in Mueller–Hinton broth without bacteria were blank control wells (incubated on equal conditions). Polystyrene trays containing 96 wells were filled with serial two-fold Mueller–Hinton broth dilutions of tested agents. Next, the broth was inoculated with 20 μl of 0.5 McFarland microbial suspension (previously diluted 1:10 by Mueller–Hinton broth). Total volume per each well was 200 μl. After incubation (at 35 °C for 18 h), bacterial cultures’ optical density was measured by microplate reader (BioTek Synergy H4 Hybrid Reader) at 600 nm. The MIC values were determined by the comparison of broth bacterial culture OD600 containing tested concentrations of examined substances to blank control wells.
Background: Dilution methods test growth across graded concentrations, often in twofold steps.

Series [2] has as its system Staphylococcus epidermidis ATCC 12228. Put plainly: Broth microdilution MIC, S. epidermidis ATCC 12228. Type of series: cell-based. Particulars: 35 °C; for MIC: Staphylococcus epidermidis, ATCC12228, 18 h, read-out: Minimal inhibitory concentration MIC, Staphylococcus epidermidis 12228. On the procedure: as §1, §2, §3, §4
Series [3] relates to methicillin-resistant S. aureus MIKROBANK 14.001. Put plainly: Broth microdilution MIC, methicillin-resistant S. aureus. The class given is cell-based, Staphylococcus aureus. Particulars: methicillin-resistant strain, 18 h, 35 °C; for MIC: Staphylococcus aureus, read-out: Minimal inhibitory concentration MIC, Staphylococcus aureus MIKROBANK 14.001. On the procedure:
as §1, §2, §3, §4

The subject of series [4] is human breast adenocarcinoma (MCF-7). Kind of series: MTT antiproliferative assay, MCF-7 cells. The class given is cell-based. As to conditions: for IC50: Homo sapiens, MCF7, MCF-7 cells, MTT, 48 h exposure, read-out: IC50 [µg/ml] ± SEM, MCF-7; for SI [IC50BJ/IC50], MCF-7: safety index = IC50 normal cells (BJ)/IC50 MCF-7. How it is done:
(§5) The experiment was carried out using normal human skin fibroblasts (BJ) and tumour cell lines: human lung carcinoma (A549), human hepatocellular carcinoma (HepG2), and human breast adenocarcinoma (MCF-7). All cell lines were obtained from ATCC (American Type Culture Collection, England, UK) and cultured in the appropriate, recommended by ATCC, culture medium, additionally supplemented with 10% foetal bovine serum and antibiotics: 100 U/ml penicillin and 100 µg/ml streptomycin. The cells were maintained at 37 °C in a humidified atmosphere of 5% CO2 and 95% air. Antiproliferative activity of the new compounds was assessed by, commonly used for this purpose, colorimetric MTT assay. Cells with active mitochondrial dehydrogenases reduced intracellularly the tetrazolium dye into purple formazan, which is proportional to the number of viable cells. The cells were seeded in 96-multiwell plates in 100 μl of the appropriate complete culture medium at a concentration of 7 × 10^3 cells/well in the case of BJ cells (normal fibroblasts), 1 × 10^4 cells/well in the case of A549 cells (lung cancer), 1.5 × 10^4 cells/well in the case of HepG2 cells (liver cancer), and 2 × 10^4 cells/well in the case of MCF-7 cells (breast cancer) so as to obtain 60–70% confluent culture after 24 h of incubation at 37 °C – the cells are then in the log (logarithmic) phase, during a period of active proliferation, but still have an unoccupied space to divide. Afterwards, the culture medium was discarded and replaced with 100 µl of different concentrations of new tested compounds and reference antiproliferative agent: irinotecan. The stock solutions of the compounds were prepared in DMSO, and solvent control was being tested concurrently to exclude toxicity attributed to DMSO. Ten serial two-fold dilutions using culture medium were performed to prepare different concentrations of the tested compounds, and the highest tested concentration was 200 µg/ml. Untreated cells (maintained in the complete culture medium) served as a negative control. After exposing cells for 48 h to the tested derivatives, the MTT assay was performed as described earlier. Three independent experiments (n = 3) were performed in a quadruplicate. The obtained data were analysed using GraphPad Prism 5, version 5.03 software (La Jolla, CA). […] Moreover, safety index (SI) was calculated using the following formula: SI=IC50normal cells (BJ)/IC50cancer cells
Background: Formazan colour is commonly taken as a measure of viable cells.

The test system of series [5] is normal human skin fibroblasts (BJ). Put plainly: MTT assay, normal fibroblasts BJ. Particulars: Skin fibroblast, 48 h exposure, read-out: IC50 [µg/ml] ± SEM, BJ. The class given is cell-based. How it is done:
as §5

Series [6] has as its system human hepatocellular carcinoma (HepG2). Kind of series: MTT antiproliferative assay, HepG2 cells. The class given is cell-based. Particulars: for IC50: Homo sapiens, HepG2 cells, MTT, 48 h exposure, read-out: IC50 [µg/ml] ± SEM, HepG2; for SI [IC50BJ/IC50], HepG2: safety index = IC50 normal cells (BJ)/IC50 HepG2. How it is done:
as §5

Series [7] concerns human lung carcinoma (A549). Put plainly: MTT antiproliferative assay, A549 cells. The class given is cell-based. How it is done: as §5

For the compound `O=C(CC1SC(=O)NC1=O)Oc1cccc(C=NNC(=O)c2cccc(Cl)c2)c1` (stereo not shown) [Compound 12, 3-{[2-(3-Chlorobenzoyl)hydrazinylidene]methyl}phenyl (2,4-dioxo-1,3-thiazolidin-5-yl)acetate], the melting point was in the range of 244 to 245 °C. Moreover, in series [1], the MIC is 500 mg/L. Further, in series [2], the MIC is 500 mg/L. Besides, in series [3], the MIC was determined as 500 mg/L.

On to `O=C(CC1SC(=O)NC1=O)Oc1cccc(C=NNC(=O)c2ccc(Cl)cc2Cl)c1` (stereo not shown) [Compound 13, 3-{[2-(2,4-Dichlorobenzoyl)hydrazinylidene]methyl}phenyl (2,4-dioxo-1,3-thiazolidin-5-yl)acetate], for which the melting point is 198 to 200 °C. For the same compound, in series [1], the MIC was determined as 500 mg/L. Also, the MIC in series [2] is 500 mg/L. In addition, the MIC in series [3] was 500 mg/L.

`O=C(CC1SC(=O)NC1=O)Oc1ccc(C=NNC(=O)c2cccc(Cl)c2)cc1` (stereo not shown) [Compound 14, 4-{[2-(3-Chlorobenzoyl)hydrazinylidene]methyl}phenyl (2,4-dioxo-1,3-thiazolidin-5-yl)acetate] showed a melting point of 215 to 216 °C.

`O=C(CC1SC(=O)NC1=O)Oc1ccc(C=NNC(=O)c2ccc(Cl)cc2Cl)cc1` (stereo not shown) [Compound 15, 4-{[2-(2,4-Dichlorobenzoyl)hydrazinylidene]methyl}phenyl (2,4-dioxo-1,3-thiazolidin-5-yl)acetate] returned a melting point of 196 to 198 °C. In addition, in series [1], the MIC amounted to 500 mg/L. The MIC in series [2] stood at 500 mg/L. The MIC in series [3] stood at 500 mg/L.

In the case of `COc1cc(C=NNC(=O)c2cccc(Cl)c2)ccc1OC(=O)CC1SC(=O)NC1=O` (stereo not shown) [Compound 16, 4-{[2-(3-Chlorobenzoyl)hydrazinylidene]methyl}-2-methoxyphenyl (2,4-dioxo-1,3-thiazolidin-5-yl)acetate], the melting point lay within 220 to 222 °C. In addition, in series [4], the IC50 was 117 ± 1.23 µg/mL (≈ 254 µM) and the “SI [IC50BJ/IC50], MCF-7” value was 1.39. In addition, the IC50 in series [5] is 163.3 ± 1.34 µg/mL (≈ 354 µM).

On to `COc1cc(C=NNC(=O)c2ccc(Cl)cc2Cl)ccc1OC(=O)CC1SC(=O)NC1=O` (stereo not shown) [Compound 17, 4-{[2-(2,4-Dichlorobenzoyl)hydrazinylidene]methyl}-2-methoxyphenyl (2,4-dioxo-1,3-thiazolidin-5-yl)acetate], for which the melting point is 186 to 188 °C. Moreover, in series [1], the MIC turned out to be 250 mg/L. The MIC in series [2] was 500 mg/L. In addition, the MIC in series [3] stood at 250 mg/L.

`O=C(C=C1SC(=O)NC1=O)Oc1cccc(C=NNC(=O)c2cccc(Cl)c2)c1` [Compound 19, 3-{[2-(3-Chlorobenzoyl)hydrazinylidene]methyl}phenyl (2,4-dioxo-1,3-thiazolidin-5-ylidene)acetate] showed a melting point of 282 to 283 °C.

As to `O=C(C=C1SC(=O)NC1=O)Oc1ccc(C=NNC(=O)c2cccc(Cl)c2)cc1` [Compound 20, 4-{[2-(3-Chlorobenzoyl)hydrazinylidene]methyl}phenyl (2,4-dioxo-1,3-thiazolidin-5-ylidene)acetate], the melting point lay in the range of 278 to 279 °C. Further, in series [5], the IC50 is 11.3 ± 1.05 µg/mL (≈ 26.4 µM). Further, in series [6], the IC50 is 27 ± 1.02 µg/mL (≈ 62.7 µM) and the “SI [IC50BJ/IC50], HepG2” value is 0.42.

Regarding `COc1cc(C=NNC(=O)c2cccc(Cl)c2)ccc1OC(=O)C=C1SC(=O)NC1=O` [Compound 21, 4-{[2-(3-Chlorobenzoyl)hydrazinylidene]methyl}-2-methoxyphenyl (2,4-dioxo-1,3-thiazolidin-5-ylidene)acetate], the melting point lay in the range of 246 to 248 °C. For the same compound, in series [4], the IC50 amounted to 124 ± 1.63 µg/mL (≈ 270 µM) and the “SI [IC50BJ/IC50], MCF-7” value came to 0.25. Further, in series [5], the IC50 is 31.4 ± 1.08 µg/mL (≈ 68.3 µM). Also, in series [6], the IC50 is 48.4 ± 1.02 µg/mL (≈ 105 µM) and the “SI [IC50BJ/IC50], HepG2” value is on record as 0.65.

Regarding `O=C(CC1SC(=O)NC1=O)Oc1ccc(C=NNC(=S)Nc2ccccc2)cc1` (stereo not shown) [Compound 25, 4-{[2-(Phenylcarbamothioyl)hydrazinylidene]methyl}phenyl (2,4-dioxo-1,3-thiazolidin-5-yl)acetate], the melting point lay within 159 to 162 °C. In series [1], the MIC worked out at 250 mg/L. Moreover, the MIC in series [2] came out at 250 mg/L. For the same compound, in series [3], the MIC was found to be 250 mg/L.

The compound `COc1cc(C=NNC(=S)Nc2ccccc2)ccc1OC(=O)CC1SC(=O)NC1=O` (stereo not shown) [Compound 26, 2-Methoxy-4-{[2-(phenylcarbamothioyl)hydrazinylidene]methyl}phenyl (2,4-dioxo-1,3-thiazolidin-5-yl)acetate] returned a melting point of 182 to 184 °C.

As to `O=C(C=C1SC(=O)NC1=O)Oc1ccc(C=NNC(=S)Nc2ccccc2)cc1` [Compound 27, 4-{[2-(Phenylcarbamothioyl)hydrazinylidene]methyl}phenyl (2,4-dioxo-1,3-thiazolidin-5-ylidene)acetate], the melting point was in the range of 199 to 202 °C. In series [1] (18 h), the “Minimal inhibitory concentration MIC, Staphylococcus aureus 25923” value came out at 125 mg/L. Moreover, the MIC in series [1] was found to be 125 mg/L. The “Minimal inhibitory concentration MIC, Staphylococcus epidermidis 12228” value in series [2] (18 h) turned out to be 125 mg/L. Further, in series [2], the MIC is 125 mg/L. Moreover, in series [3], the MIC came out at 125 mg/L and the “Minimal inhibitory concentration MIC, Staphylococcus aureus MIKROBANK 14.001” value is 125 mg/L.

As for `COc1cc(C=NNC(=S)Nc2ccccc2)ccc1OC(=O)C=C1SC(=O)NC1=O` [Compound 28, 2-Methoxy-4-{[2-(phenylcarbamothioyl)hydrazinylidene]methyl}phenyl (2,4-dioxo-1,3-thiazolidin-5-ylidene)acetate], the melting point is 186 to 187 °C. For the same compound, the MIC in series [1] amounted to 125 mg/L. For the same compound, the MIC in series [2] is 125 mg/L. For the same compound, the MIC in series [3] amounted to 125 mg/L.

`CCc1c2c(nc3ccc(OC(=O)N4CCC(N5CCCCC5)CC4)cc13)-c1cc3c(c(=O)n1C2)COC(=O)[C@]3(O)CC` [Irinotecan, irinotecan, reference compound]: the IC50 turned out to be 21.1 ± 1.23 µg/mL (≈ 35.9 µM) in series [4]; 39.7 ± 1.2 µg/mL (≈ 67.7 µM) in series [7] (Homo sapiens, A549 cells, MTT, 48 h exposure, read-out: IC50 [µg/ml] ± SEM, A549); 38.7 ± 1.37 µg/mL (≈ 65.9 µM) in series [5]; 14.8 ± 1.24 µg/mL (≈ 25.2 µM) in series [6]. Also, in series [4], the “SI [IC50BJ/IC50], MCF-7” value turned out to be 1.84. For the same compound, in series [7] (safety index = IC50 normal cells (BJ)/IC50 A549), the “SI [IC50BJ/IC50], A549” value was 0.97. Besides, the “SI [IC50BJ/IC50], HepG2” value in series [6] was found to be 2.62.
